This passage reports IC50 results from patent publication US9815846B2 (Merck Sharp & Dohme Corp., priority 2014, dated 2017).

The structures appear in SMILES notation. pIC50: −log10 of the molar value.

One may read the pIC50 as −log10 of the IC50, conventionally taken in molar units. Read a low pIC50 as a high IC50.

The target of the assay is human TrkA receptor (Homo sapiens (Human), UniProt P04629). As to the kind of experiment: DiscoverX PathHunter TrkA functional assay (NGF-stimulated U2OS cells). Format: cell-based. The note with it: U2OS cells expressing human TrkA-PK, Shc1-EA and p75NTR; compound 1 h, then NGF at ~80% of maximal response for 3 h; luminescence.
human TrkA receptor, sequence (P04629 33-796): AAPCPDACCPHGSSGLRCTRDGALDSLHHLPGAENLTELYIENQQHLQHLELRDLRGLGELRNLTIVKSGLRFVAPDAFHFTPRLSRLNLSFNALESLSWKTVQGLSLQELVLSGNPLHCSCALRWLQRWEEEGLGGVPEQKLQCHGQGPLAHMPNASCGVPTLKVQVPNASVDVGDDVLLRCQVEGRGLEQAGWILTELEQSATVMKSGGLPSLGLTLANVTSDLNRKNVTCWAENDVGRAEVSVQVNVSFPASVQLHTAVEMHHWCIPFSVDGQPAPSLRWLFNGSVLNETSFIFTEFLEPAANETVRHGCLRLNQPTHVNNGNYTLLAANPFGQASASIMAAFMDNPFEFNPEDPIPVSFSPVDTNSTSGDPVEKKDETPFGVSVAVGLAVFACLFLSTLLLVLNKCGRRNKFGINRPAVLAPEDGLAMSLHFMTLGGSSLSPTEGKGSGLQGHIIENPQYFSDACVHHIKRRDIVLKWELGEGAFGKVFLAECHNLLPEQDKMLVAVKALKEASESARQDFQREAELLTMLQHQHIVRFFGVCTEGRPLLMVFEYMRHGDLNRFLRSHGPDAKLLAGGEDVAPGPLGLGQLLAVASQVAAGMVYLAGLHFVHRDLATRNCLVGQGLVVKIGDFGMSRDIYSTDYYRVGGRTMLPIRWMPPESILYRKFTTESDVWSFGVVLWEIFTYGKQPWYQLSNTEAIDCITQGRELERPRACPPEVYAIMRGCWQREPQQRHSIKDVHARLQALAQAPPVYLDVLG

Regarding `CCn1c(Cc2ncc(NC(=O)c3cc(-c4ccn(C)n4)c(C(F)(F)F)cc3F)c(-c3ccccc3)n2)n[nH]c1=O` [Example 180, N-(2-((4-ethyl-5-oxo-4,5-dihydro-1H-1,2,4-triazol-3-yl)methyl)-4-phenylpyrimidin-5-yl)-2-fluoro-5-(1-methyl-1H-pyrazol-3-yl)-4-(trifluoromethyl)benzamide], the pIC50 was 8.49.
Regarding `Cn1ccc(-c2cc(C(=O)Nc3cnc(CN4CCN(S(C)(=O)=O)CC4)nc3-c3ccccc3)c(F)cc2C(F)(F)F)n1` [Example 182, 2-Fluoro-5-(1-methyl-1H-pyrazol-3-yl)-N-(2-((4-(methylsulfonyl)piperazin-1-yl)methyl)-4-phenylpyrimidin-5-yl)-4-(trifluoromethyl)benzamide], the pIC50 is 8.29.
The result for `Cn1ccc(-c2cc(C(=O)Nc3ccc(CN4CC5(COC5)C4)nc3-c3ccccc3)c(F)cc2C(F)(F)F)n1` [Example 183, N-(6-((2-oxa-6-azaspiro[3.3]heptan-6-yl)methyl)-2-phenylpyridin-3-yl)-2-fluoro-5-(1-methyl-1H-pyrazol-3-yl)-4-(trifluoromethyl)benzamide] reads 8.15; that for `Cn1ccc(-c2cc(C(=O)Nc3cnc(CN4C[C@@H](O)[C@@H](O)C4)nc3-c3ccccc3)c(F)cc2C(F)(F)F)n1` [Example 184, N-(2-(((3S,4R)-3,4-dihydroxypyrrolidin-1-yl)methyl)-4-phenylpyrimidin-5-yl)-2-fluoro-5-(1-methyl-1H-pyrazol-3-yl)-4-(trifluoromethyl)benzamide], 8.39.
On to `O=C(Nc1cc2c(nc1-c1ccccc1)C(=O)NC2=O)c1cc(-c2ncccn2)c(C(F)(F)F)cc1F` [Example 185, N-(5,7-Dioxo-2-phenyl-6,7-dihydro-5H-pyrrolo[3,4-b]pyridin-3-yl)-2-fluoro-5-(pyrimidin-2-yl)-4-(trifluoromethyl)benzamide], for which the pIC50 is 7.74.
In the case of `Cn1ccc(-c2cc(C(=O)Nc3cnc(CN4C(=O)CCC4=O)nc3-c3ccccc3)c(F)cc2C(F)(F)F)n1` [Example 187, N-(2-((2,5-dioxopyrrolidin-1-yl)methyl)-4-phenylpyrimidin-5-yl)-2-fluoro-5-(1-methyl-1H-pyrazol-3-yl)-4-(trifluoromethyl)benzamide] it was 9.17.
The result for `Cn1ccc(-c2cc(C(=O)Nc3cc4c(nc3-c3ccccc3)CNC4)c(F)cc2C(F)(F)F)n1` [Example 188, 2-Fluoro-5-(1-methyl-1H-pyrazol-3-yl)-N-(2-phenyl-6,7-dihydro-5H-pyrrolo[3,4-b]pyridin-3-yl)-4-(trifluoromethyl)benzamide] reads 8.54; that for `Cn1ccc(-c2cc(C(=O)Nc3cnc(C4CCCNC4=O)nc3-c3ccccc3)c(F)cc2C(F)(F)F)n1` (centres unmarked) [Example 193, 2-Fluoro-5-(1-methyl-1H-pyrazol-3-yl)-N-(2-(2-oxopiperidin-3-yl)-4-phenylpyrimidin-5-yl)-4-(trifluoromethyl)benzamide], 8.41; that for `Cn1ccc(-c2cc(C(=O)Nc3cc(S(C)(=O)=O)cnc3-c3ccccc3)c(F)cc2C(F)(F)F)n1` [Example 194, 2-Fluoro-5-(1-methyl-1H-pyrazol-3-yl)-N-(5-(methylsulfonyl)-2-phenylpyridin-3-yl)-4-(trifluoromethyl)benzamide], 8.59.
The result for `Cn1ccc(-c2cc(C(=O)Nc3cc(S(C)(=N)=O)cnc3-c3ccccc3)c(F)cc2C(F)(F)F)n1` (centres unmarked) [Example 195, 2-fluoro-5-(1-methyl-1H-pyrazol-3-yl)-N-(5-(S-methylsulfonimidoyl)-2-phenylpyridin-3-yl)-4-(trifluoromethyl)benzamide] reads 8.55.
`Cn1ccc(-c2cc(C(=O)Nc3cnc(CS(C)(=O)=O)nc3-c3ccccc3)c(F)cc2C(F)(F)F)n1` [Example 199, 2-Fluoro-5-(1-methyl-1H-pyrazol-3-yl)-N-(2-((methylsulfonyl)methyl)-4-phenylpyrimidin-5-yl)-4-(trifluoromethyl)benzamide]: the pIC50 is 8.40.
The result for `CNS(=O)(=O)Cc1ccc(NC(=O)c2cc(-c3ccn(C)n3)c(C(F)(F)F)cc2F)c(-c2ccccc2)n1` [Example 200, 2-fluoro-5-(1-methyl-1H-pyrazol-3-yl)-N-(6-((N-methylsulfamoyl)methyl)-2-phenylpyridin-3-yl)-4-(trifluoromethyl)benzamide] reads 8.36; that for `Cn1ccc(-c2cc(C(=O)Nc3cnc(CC4CC(=O)NC4=O)nc3-c3ccccc3)c(F)cc2C(F)(F)F)n1` (centres unmarked) [Example 201, N-(2-((2,5-Dioxopyrrolidin-3-yl)methyl)-4-phenylpyrimidin-5-yl)-2-fluoro-5-(1-methyl-1H-pyrazol-3-yl)-4-(trifluoromethyl)benzamide], 8.55.
In the case of `Cn1ccc(-c2cc(C(=O)Nc3cc(CC(N)=O)cnc3-c3ccccc3)c(F)cc2C(F)(F)F)n1` [Example 202, N-(5-(2-Amino-2-oxoethyl)-2-phenylpyridin-3-yl)-2-fluoro-5-(1-methyl-1H-pyrazol-3-yl)-4-(trifluoromethyl)benzamide] it was 8.43; in that of `Cn1ccc(-c2cc(C(=O)Nc3cc(CC(N)=O)cnc3-c3ccccc3)ccc2C(F)(F)F)n1` [Example 203, N-(5-(2-amino-2-oxoethyl)-2-phenylpyridin-3-yl)-3-(1-methyl-1H-pyrazol-3-yl)-4-(trifluoromethyl)benzamide], 8.22; in that of `O=C(Nc1cc(Cc2cnco2)cnc1-c1ccccc1)c1cc(-c2ncccn2)c(C(F)(F)F)cc1F` [Example 204, 2-fluoro-N-(5-(oxazol-5-ylmethyl)-2-phenylpyridin-3-yl)-5-(pyrimidin-2-yl)-4-(trifluoromethyl)benzamide], 8.08.
The result for `Cn1ccc(-c2cc(C(=O)Nc3nc(CC(N)=O)ccc3-c3ccccc3)c(F)cc2C(F)(F)F)n1` [Example 205, N-(6-(2-Amino-2-oxoethyl)-3-phenylpyridin-2-yl)-2-fluoro-5-(1-methyl-1H-pyrazol-3-yl)-4-(trifluoromethyl)benzamide] reads 8.08; that for `Cn1ccc(-c2cc(C(=O)Nc3ccc(C4CN(C(=O)CO)C4)nc3-c3ccccc3)c(F)cc2C(F)(F)F)n1` [Example 206, 2-Fluoro-N-(6-(1-(2-hydroxyacetyl)azetidin-3-yl)-2-phenylpyridin-3-yl)-5-(1-methyl-1H-pyrazol-3-yl)-4-(trifluoromethyl)benzamide], 8.89; that for `Cn1ccc(-c2cc(C(=O)Nc3ccc(C4CN(C(=O)CN)C4)nc3-c3ccccc3)c(F)cc2C(F)(F)F)n1` [Example 207, 2-fluoro-N-(6-(1-glycylazetidin-3-yl)-2-phenylpyridin-3-yl)-5-(1-methyl-1H-pyrazol-3-yl)-4-(trifluoromethyl)benzamide], 8.96.
In turn, `CC(=O)N1CC(c2ccc(NC(=O)c3cc(-c4ccn(C)n4)c(C(F)(F)F)cc3F)c(-c3ccccc3)n2)C1` [Example 208, N-(6-(1-acetylazetidin-3-yl)-2-phenylpyridin-3-yl)-2-fluoro-5-(1-methyl-1H-pyrazol-3-yl)-4-(trifluoromethyl)benzamide] gave a pIC50 of 8.52.
The result for `Cn1ccc(-c2cc(C(=O)Nc3cnc(NC(=O)CO)nc3-c3ccccc3)c(F)cc2C(F)(F)F)n1` [Example 209, 2-Fluoro-N-(2-(2-hydroxyacetamido)-4-phenylpyrimidin-5-yl)-5-(1-methyl-1H-pyrazol-3-yl)-4-(trifluoromethyl)benzamide] reads 8.70; that for `Cn1ccc(-c2cc(C(=O)Nc3cnc(NCCO)nc3-c3ccccc3)ccc2C(F)(F)F)n1` [Example 210, N-(2-((2-hydroxyethyl)amino)-4-phenylpyrimidin-5-yl)-3-(1-methyl-1H-pyrazol-3-yl)-4-(trifluoromethyl)benzamide], 8.60.
In the case of `Cn1ccc(-c2cc(C(=O)Nc3cnc(N4CCNC4=O)nc3-c3ccccc3)c(F)cc2C(F)(F)F)n1` [Example 211, 2-fluoro-5-(1-methyl-1H-pyrazol-3-yl)-N-(2-(2-oxoimidazolidin-1-yl)-4-phenylpyrimidin-5-yl)-4-(trifluoromethyl)benzamide] it was 8.59.
The result for `Cn1ccc(-c2cc(C(=O)Nc3cnc(N)nc3-c3ccccc3)c(F)cc2C(F)(F)F)n1` [Example 212, N-(2-amino-4-phenylpyrimidin-5-yl)-2-fluoro-5-(1-methyl-1H-pyrazol-3-yl)-4-(trifluoromethyl)benzamide] reads 8.55; that for `Cn1ccc(-c2cc(C(=O)Nc3cnc(NCC(N)=O)nc3-c3ccccc3)c(F)cc2C(F)(F)F)n1` [Example 213, N-(2-((2-amino-2-oxoethyl)amino)-4-phenylpyrimidin-5-yl)-2-fluoro-5-(1-methyl-1H-pyrazol-3-yl)-4-(trifluoromethyl)benzamide], 8.85; that for `Cn1ccc(-c2cc(C(=O)Nc3ncc(CN4CCOC4=O)nc3-c3ccccc3)c(F)cc2C(F)(F)F)n1` [Example 214, 2-Fluoro-5-(1-methyl-1H-pyrazol-3-yl)-N-(5-((2-oxooxazolidin-3-yl)methyl)-3-phenylpyrazin-2-yl)-4-(trifluoromethyl)benzamide], 8.34.
The molecule `Cn1ccc(-c2cc(C(=O)Nc3ccc(C4CNC(=O)N4)nc3-c3ccccc3)c(F)cc2C(F)(F)F)n1` (centres unmarked) [Example 215, 2-Fluoro-5-(1-methyl-1H-pyrazol-3-yl)-N-(6-(2-oxoimidazolidin-4-yl)-2-phenylpyridin-3-yl)-4-(trifluoromethyl)benzamide] showed a pIC50 of 9.44.
In the case of `Cn1ccc(-c2cc(C(=O)Nc3cnc(OCC(N)=O)nc3-c3ccccc3)c(F)cc2C(F)(F)F)n1` [Example 216, N-(2-(2-Amino-2-oxoethoxy)-4-phenylpyrimidin-5-yl)-2-fluoro-5-(1-methyl-1H-pyrazol-3-yl)-4-(trifluoromethyl)benzamide] it was 8.74.
In the case of `Cn1ccc(-c2cc(C(=O)Nc3cnc(CN4CCCC4=O)nc3-c3ccccc3)c(F)cc2C(F)(F)F)n1` [Example 219, 2-fluoro-5-(1-methyl-1H-pyrazol-3-yl)-N-(2-((2-oxopyrrolidin-1-yl)methyl)-4-phenylpyrimidin-5-yl)-4-(trifluoromethyl)benzamide] it was 9.49.
